In patent publication US20070197590A1, “SUBSTITUTED DIPIPERIDINE CCR2 ANTAGONISTS” (priority 2006, published 2007):

Target: T1, CCR2 (Homo sapiens, UniProt P41597)
T1 construct: host or cells: THP-1 cells
T1 sequence (P41597 1-360 isoform P41597-2): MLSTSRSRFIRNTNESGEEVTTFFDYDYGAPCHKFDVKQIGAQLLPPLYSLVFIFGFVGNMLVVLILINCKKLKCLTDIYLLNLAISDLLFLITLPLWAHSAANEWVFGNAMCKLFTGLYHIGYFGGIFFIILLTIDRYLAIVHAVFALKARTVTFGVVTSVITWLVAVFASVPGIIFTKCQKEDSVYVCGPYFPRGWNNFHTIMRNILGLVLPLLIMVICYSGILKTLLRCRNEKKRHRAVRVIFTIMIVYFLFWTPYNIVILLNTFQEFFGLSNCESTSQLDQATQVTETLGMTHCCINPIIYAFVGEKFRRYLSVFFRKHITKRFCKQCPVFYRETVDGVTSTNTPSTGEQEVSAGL
Assay: MCP-1 Receptor Binding Assay in THP-1 Cells
Details: for inhibition at 25 µM: test concentration of 25 μM, given where an IC50 value was not obtained, read-out: Inhibition of MCP-1 Binding, percent inhibition; for IC50: THP-1 cells, 0.5 nM 125I labeled MCP-1, 2 hours at 30° C., read-out: Inhibition of MCP-1 Binding IC50
Description: THP-1 cells were obtained from American Type Culture Collection (Manassas, Va., USA). The THP-1 cells were grown in RPMI-1640 supplemented with 10% fetal bovine serum in a humidified 5% CO2 atmosphere at 37° C. The cell density was maintained […].
THP-1 cells were incubated with 0.5 nM ^125, labeled MCP-1 (Perkin-Elmer Life Sciences, Inc. Boston, Mass.) in the presence of varying concentrations of either unlabeled MCP-1 (R & D Systems, Minneapolis, Minn.) or test compound for 2 hours at 30° C. in a 96 well plate. Cells were then harvested onto a filter plate, dried, and 20 μL of Microscint 20 was added to each well. Plates were counted in a TopCount NXT, Microplate Scintillation & Luminescence Counter (Perkin-Elmer Life Sciences, Inc. Boston, Mass.). Blank values (buffer only) were subtracted from all values and drug treated values were compared to vehicle treated values. 1 μM cold MCP-1 was used for nonspecific binding.
Table 1 lists IC50 values for inhibition of MCP-1 binding to CCR2 obtained for test compounds of the invention.

Row | SMILES | inhibition at 25 µM [%] | IC50 [µM]
1 | COc1ccc(C2CCN(CC(O)C3CCN(C(=O)Nc4ccc5c(c4)OCO5)CC3)CC2)cc1 (stereo not drawn) [Compound 100, 4-{1-hydroxy-2-[4-(4-methoxy-phenyl)-piperidin-1-yl]-ethyl}-piperidine-1-carboxylic acid benzo[1,3]dioxol-5-ylamide] | 50 | 
2 | COc1ccc(C2CCN(CC(O)C3CCN(C(=O)Nc4ccc(C(F)(F)F)cc4Cl)CC3)CC2)cc1 (stereo not drawn) [Compound 101, 4-{1-hydroxy-2-[4-(4-methoxy-phenyl)-piperidin-1-yl]-ethyl}-piperidine-1-carboxylic acid (2-chloro-4-trifluoromethyl-phenyl)-amide] | 51 | 
3 | COc1ccc(C2CCN(CC(O)C3CCN(C(=S)Nc4cccc(C#N)c4)CC3)CC2)cc1 (stereo not drawn) [Compound 104, 4-{1-hydroxy-2-[4-(4-methoxy-phenyl)-piperidin-1-yl]-ethyl}-piperidine-1-carbothioic acid (3-cyano-phenyl)-amide] |  | 2.7
4 | COc1ccc(C2CCN(CC(O)C3CCN(C(=S)Nc4cc(F)cc(F)c4F)CC3)CC2)cc1 (stereo not drawn) [Compound 109, 4-{1-hydroxy-2-[4-(4-methoxy-phenyl)-piperidin-1-yl]-ethyl}-piperidine-1-carbothioic acid (2,3,5-trifluoro-phenyl)-amide] |  | 4.2
5 | COc1ccc(C2CCN(CC(O)C3CCN(C(=S)Nc4cc(OC)cc(OC)c4)CC3)CC2)cc1 (stereo not drawn) [Compound 111, 4-{1-hydroxy-2-[4-(4-methoxy-phenyl)-piperidin-1-yl]-ethyl}-piperidine-1-carbothioic acid (3,5-dimethoxy-phenyl)-amide] |  | 2.6
6 | O=C(OCc1ccccc1)N1CCC(O)(C(O)CN2CCC(c3ccc(Cl)cc3)CC2)CC1 (stereo not drawn) [Compound 112, 4-{2-[4-(4-chloro-phenyl)-piperidin-1-yl]-1-hydroxy-ethyl}-4-hydroxy-piperidine-1-carboxylic acid benzyl ester] |  | 3.7
7 | COc1ccc(C2CCN(CC(O)C3(O)CCN(C(=S)Nc4cc(OC)cc(OC)c4)CC3)CC2)cc1 (stereo not drawn) [Compound 119, 4-hydroxy-4-{1-hydroxy-2-[4-(4-methoxy-phenyl)-piperidin-1-yl]-ethyl}-piperidine-1-carbothioic acid (3,5-dimethoxy-phenyl)-amide] | 43 | 
8 | OC(CN1CCC(c2c[nH]c3ccc(N4CCOCC4)cc23)CC1)C1(O)CCN(c2nccc(C(F)(F)F)n2)CC1 (stereo not drawn) [Compound 122, 4-{1-hydroxy-2-[4-(5-morpholin-4-yl-1H-indol-3-yl)-piperidin-1-yl]-ethyl}-1-(4-trifluoromethyl-pyrimidin-2-yl)-piperidin-4-ol] | 51 | 
9 | O=C(OCc1ccccc1)N1CCC(O)(C(O)CN2CCC(c3ccc(F)cc3)CC2)CC1 (stereo not drawn) [Compound 125, 4-{2-[4-(4-fluoro-phenyl)-piperidin-1-yl]-1-hydroxy-ethyl}-4-hydroxy-piperidine-1-carboxylic acid benzyl ester] | 51 | 
10 | O=C(OCc1ccccc1)N1CCC(O)(C(O)CN2CCC(c3ccc(C(F)(F)F)cc3)CC2)CC1 (stereo not drawn) [Compound 126, 4-hydroxy-4-{1-hydroxy-2-[4-(4-trifluoromethyl-phenyl)-piperidin-1-yl]-ethyl}-piperidine-1-carboxylic acid benzyl ester] | 55 | 
11 | COc1ccc(C2CCN(CC(O)C3CCN(c4ccc([N+](=O)[O-])cn4)CC3)CC2)cc1 (stereo not drawn) [Compound 127, 2-[4-(4-methoxy-phenyl)-piperidin-1-yl]-1-(5′-nitro-3,4,5,6-tetrahydro-2H-[1,2′]bipyridinyl-4-yl)-ethanol] | 59 | 
12 | O=C(Nc1cc(F)cc(F)c1)N1CCC(O)(C(O)CN2CCC(c3ccc(F)cc3)CC2)CC1 (stereo not drawn) [Compound 133, 4-{2-[4-(4-fluoro-phenyl)-piperidin-1-yl]-1-hydroxy-ethyl}-4-hydroxy-piperidine-1-carboxylic acid (3,5-difluoro-phenyl)-amide] |  | 3
13 | COc1ccc(/C=C/C(=O)N2CCC(O)(C(O)CN3CCC(c4ccc(C(F)(F)F)cc4)CC3)CC2)cc1OC (stereo not drawn) [Compound 140] |  | 15.4
14 | O=C(Nc1ccc(F)c(F)c1)N1CCC(O)(C(O)CN2CCC(c3ccc(C(F)(F)F)cc3)CC2)CC1 (stereo not drawn) [Compound 141, 4-hydroxy-4-{1-hydroxy-2-[4-(4-trifluoromethyl-phenyl)-piperidin-1-yl]-ethyl}-piperidine-1-carboxylic acid (3,4-difluoro-phenyl)-amide] |  | 2.8
15 | O=C(Nc1ccc(Cl)c(Cl)c1)N1CCC(O)(C(O)CN2CCC(c3ccc(C(F)(F)F)cc3)CC2)CC1 (stereo not drawn) [Compound 143, 4-hydroxy-4-{1-hydroxy-2-[4-(4-trifluoromethyl-phenyl)-piperidin-1-yl]-ethyl}-piperidine-1-carboxylic acid (3,4-dichloro-phenyl)-amide] |  | 1
16 | OC(CN1CCC(c2ccc(C(F)(F)F)cc2)CC1)C1(O)CCN(C(=S)Nc2ccc(Cl)c(Cl)c2)CC1 (stereo not drawn) [Compound 144, 4-hydroxy-4-{1-hydroxy-2-[4-(4-trifluoromethyl-phenyl)-piperidin-1-yl]-ethyl}-piperidine-1-carbothioic acid (3,4-dichloro-phenyl)-amide] |  | 3.4
17 | OC(CN1CCC(c2ccc(C(F)(F)F)cc2)CC1)C1(O)CCN(C(=S)Nc2cc(Cl)cc(Cl)c2)CC1 (stereo not drawn) [Compound 145, 4-hydroxy-4-{1-hydroxy-2-[4-(4-trifluoromethyl-phenyl)-piperidin-1-yl]-ethyl}-piperidine-1-carbothioic acid (3,5-dichloro-phenyl)-amide] |  | 1.9
18 | CC(C)(C)OC(=O)N1CCC(O)(C(O)CN2CCC(c3ccc(Cl)cc3)CC2)CC1 (stereo not drawn) [Compound 146, 4-{2-[4-(4-chloro-phenyl)-piperidin-1-yl]-1-hydroxy-ethyl}-4-hydroxy-piperidine-1-carboxylic acid tert-butyl ester] | 41 | 
19 | Nc1ccc2[nH]cc(C3CCN(CC(O)C4CCN(C(=O)OCc5ccccc5)CC4)CC3)c2c1 (stereo not drawn) [Compound 147, 4-{2-[4-(5-amino-1H-indol-3-yl)-piperidin-1-yl]-1-hydroxy-ethyl}-piperidine-1-carboxylic acid benzyl ester] |  | 3
20 | O=C(/C=C/c1cc(F)c(F)c(F)c1)N1CCC(O)(C(O)CN2CCC(c3c[nH]c4ccc(N5CCOCC5)cc34)CC2)CC1 (stereo not drawn) [Compound 148] |  | 1.1
21 | O=C(/C=C/c1cc(F)cc(F)c1)N1CCC(O)(C(O)CN2CCC(c3c[nH]c4ccc(N5CCOCC5)cc34)CC2)CC1 (stereo not drawn) [Compound 149] |  | 1.3
22 | O=C(/C=C/c1cc(C(F)(F)F)cc(C(F)(F)F)c1)N1CCC(O)(C(O)CN2CCC(c3c[nH]c4ccc(N5CCOCC5)cc34)CC2)CC1 (stereo not drawn) [Compound 150] |  | 8.7
23 | O=C(/C=C/c1cc(F)cc(F)c1)N1CCC(O)(C(O)CN2CCC(O)(c3ccc(F)cc3)CC2)CC1 (stereo not drawn) [Compound 154] |  | 1.8
24 | O=C(Nc1cc(F)ccc1Cl)N1CCC(O)(C(O)CN2CCC(c3c[nH]c4ccc(F)cc34)CC2)CC1 (stereo not drawn) [Compound 161] |  | 8.3
25 | OC(CN1CCC(c2c[nH]c3ccc(F)cc23)CC1)C1(O)CCN(C(=S)Nc2ccc(Cl)c(Cl)c2)CC1 (stereo not drawn) [Compound 162] |  | 8.1
26 | OC(CN1CCC(c2ccc(Cl)cc2)CC1)C1(O)CCN(C(=S)Nc2cc(F)cc(F)c2F)CC1 (stereo not drawn) [Compound 166, 4-{2-[4-(4-chloro-phenyl)-piperidin-1-yl]-1-hydroxy-ethyl}-4-hydroxy-piperidine-1-carbothioic acid (2,3,5-trifluoro-phenyl)-amide] |  | 3.1
27 | O=C(CCc1ccc(Cl)c(Cl)c1)N1CCC(O)(C(O)CN2CCC(c3c[nH]c4ccc(F)cc34)CC2)CC1 (stereo not drawn) [Compound 168, 3-(3,4-dichloro-phenyl)-1-(4-{2-[4-(5-fluoro-1H-indol-3-yl)-piperidin-1-yl]-1-hydroxy-ethyl}-4-hydroxy-piperidin-1-yl)-propan-1-one] |  | 2.7
28 | O=C(Cc1cccc([N+](=O)[O-])c1)N1CCC(O)(C(O)CN2CCC(c3c[nH]c4ccc(N5CCOCC5)cc34)CC2)CC1 (stereo not drawn) [Compound 176, 1-(4-hydroxy-4-{1-hydroxy-2-[4-(5-morpholin-4-yl-1H-indol-3-yl)-piperidin-1-yl]-ethyl}-piperidin-1-yl)-2-(3-nitro-phenyl)-ethanone] | 42 | 
29 | O=C(Nc1ccc(F)c(F)c1)N1CCC(O)(C(O)CN2CCC(c3c[nH]c4ccc(N5CCOCC5)cc34)CC2)CC1 (stereo not drawn) [Compound 179, 4-hydroxy-4-{1-hydroxy-2-[4-(5-morpholin-4 yl-1H-indol-3-yl)-piperidin-1-yl]-ethyl}-piperidine-1-carboxylic acid (3,4-difluoro-phenyl)-amide] |  | 5.8
30 | O=C(Nc1cc(F)cc(C(F)(F)F)c1)N1CCC(O)(C(O)CN2CCC(c3c[nH]c4ccc(N5CCOCC5)cc34)CC2)CC1 (stereo not drawn) [Compound 180, 4-hydroxy-4-{1-hydroxy-2-[4-(5-morpholin-4-yl-1H-indol-3-yl)-piperidin-1-yl]-ethyl}-piperidine-1-carboxylic acid (3-fluoro-5-trifluoromethyl-phenyl)-amide] |  | 4.2
